Tests used:
AMPK α1β1γ1 = target: T1, AMPK α1β1γ1 (Homo sapiens, UniProt P54619+Q13131); experiment: CHEF-based activity assay (Omnia S/T23 peptide); assay type: biochemical; settings: ATP 40 µM, substrate 8 µM, 30°C
T1 construct: made in house; host or cells: Sf9 insect cells (baculovirus)
Experimental: Kinase reactions were performed in a 50 µL reaction volume at 30°C in 96-well half-area plate (Corning Model 3992) using the same assay buffer as the radiometric assays. Inhibitors and activators were prepared as described for the radiometric assays. Assays were performed by mixing 10 µL enzyme solution, 10 µL of substrate peptide solution, 10 µL of AMP solution (or H2O for the activator experiments), and 10 µL of inhibitor or activator solution. The reactions were initiated by adding 10 µL of ATP solution. The final concentration of Omnia™ S/T23 peptide substrate in the reaction was 8 µM. AMPK α1β1γ1 was used at 320 ng/mL (1.7 nM), at an ATP concentration of 40 µM. AMPK α2β1γ1 was used at 640 ng/mL (3.4 nM), at an ATP concentration of 120 µM. The concentration of AMP in the inhibitor titrations was 80 µM. Immediately after addition of ATP the assay plate was placed into a fluorescence plate reader (Molecular Devices SpectraMax M5, pre-warmed to 30°C). The plates were read for 60 minutes using an excitation wavelength of 360 nm and emission wavelength of 485 nm. The reaction rates were calculated as the change in fluorescence intensity over time (Rfu/sec) over the period where the assay response was linear.
Data analysis and curve-fitting was performed using GraphPad Prism software (GraphPad Software, Inc, San Diego CA).

[1] = test system: partially purified human AMPK; parameters: method as in PMID 8185610; settings: cited from earlier work
rat liver AMPK = settings: rat liver AMPK; cited from earlier work

T1 sequence (Q13131 whole entry): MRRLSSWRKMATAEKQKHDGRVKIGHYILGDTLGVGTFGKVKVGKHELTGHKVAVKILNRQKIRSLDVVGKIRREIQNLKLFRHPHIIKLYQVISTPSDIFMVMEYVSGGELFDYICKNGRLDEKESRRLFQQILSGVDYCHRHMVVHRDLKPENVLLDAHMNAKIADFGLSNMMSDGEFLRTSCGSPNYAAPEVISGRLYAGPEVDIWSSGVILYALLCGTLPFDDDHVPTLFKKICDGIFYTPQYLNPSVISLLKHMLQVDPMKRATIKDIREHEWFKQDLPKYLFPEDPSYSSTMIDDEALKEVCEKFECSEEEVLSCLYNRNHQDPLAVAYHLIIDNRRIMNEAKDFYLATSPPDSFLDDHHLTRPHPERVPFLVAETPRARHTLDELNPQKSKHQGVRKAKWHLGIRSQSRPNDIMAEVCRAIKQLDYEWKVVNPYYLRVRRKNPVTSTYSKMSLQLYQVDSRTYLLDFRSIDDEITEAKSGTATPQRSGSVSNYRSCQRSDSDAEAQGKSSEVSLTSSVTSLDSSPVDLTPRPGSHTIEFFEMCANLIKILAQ
T1 sequence (Q9Y478 whole entry partner): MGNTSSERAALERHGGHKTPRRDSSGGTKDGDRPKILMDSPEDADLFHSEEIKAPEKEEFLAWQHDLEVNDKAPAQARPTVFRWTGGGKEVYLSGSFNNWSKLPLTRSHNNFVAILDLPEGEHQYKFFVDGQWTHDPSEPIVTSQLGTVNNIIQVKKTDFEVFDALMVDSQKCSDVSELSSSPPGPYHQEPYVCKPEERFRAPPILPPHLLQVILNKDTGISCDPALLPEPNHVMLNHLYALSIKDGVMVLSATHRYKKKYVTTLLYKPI
T1 sequence (P54619 whole entry): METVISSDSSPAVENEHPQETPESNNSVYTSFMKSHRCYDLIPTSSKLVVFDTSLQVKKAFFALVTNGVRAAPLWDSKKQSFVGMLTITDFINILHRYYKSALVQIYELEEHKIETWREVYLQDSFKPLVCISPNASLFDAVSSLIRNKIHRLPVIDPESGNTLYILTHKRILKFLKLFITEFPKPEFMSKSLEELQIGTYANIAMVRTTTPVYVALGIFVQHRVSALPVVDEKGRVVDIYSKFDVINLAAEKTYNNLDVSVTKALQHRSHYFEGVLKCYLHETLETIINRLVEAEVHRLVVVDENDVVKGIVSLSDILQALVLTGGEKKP

Structure (SMILES) | Max. fold-activation (AMPK α1β1γ1) [fold] | EC50 (AMPK α1β1γ1; read-out: Activator EC50) [nM] | fold stimulation (maximal extent of activation) [1] [fold] | IC50 (rat liver AMPK) [nM]
Nc1ncnc2c1ncn2[C@@H]1O[C@H](COP(O)(O)=S)[C@@H](O)[C@H]1O [ATMP, adenosine 5′-O-thiomonophosphate] | 1.8 | 250 | 2.5 | 
c1cc(-c2cnn3cc(-c4ccc(OCCN5CCCCC5)cc4)cnc23)ccn1 [Cpd C] |  |  |  | 109
